Results: Sander's compilation of Henry's law constants (doi:10.1093/jxb/48.5.1095)

Test: Henry solubility constant Hcp at 298.15 K (mol/(m3 Pa))
Conditions: reference: Merk and Riederer (1997)

Structure (SMILES) | Henry solubility constant Hcp
CCCCCCO [1-hexanol] | 0.58
CCCCCO [1-pentanol] | 0.77
CC(C)CO [2-methyl-1-propanol] | 0.78
CCC(C)O (stereo not given) [2-butanol] | 0.83
CCC(C)(C)O [2-methyl-2-butanol] | 0.7
CCO [ethanol] | 1.9
CCCC(C)O (stereo not given) [2-pentanol] | 0.66
CCCO [1-propanol] | 1.5
CC(C)O [2-propanol] | 1.2
CCCCC(C)O (stereo not given) [2-hexanol] | 0.48
